The source of these data is patent US8076352B2, “Administration of carboline derivatives useful in the treatment of cancer and other diseases” (PTC Therapeutics, Inc., priority 2004, dated 2011).

For orientation: EC50 means the midpoint of the concentration-response curve. High values mean a need for much substance, low ones an effect from little substance.

The assay has as its system hypoxia-inducible endogenous VEGF expression in HeLa cells. Kind of assay: Hypoxia-inducible endogenous VEGF expression, VEGF ELISA of conditioned media (dose-response EC50). The conditions noted are these: HeLa cells, hypoxic conditions (1% O2). The format is cell-based. In short, it runs like this:
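HeLa cells were cultured 24-48 h under hypoxia (1% O2, 5% CO2, balance N2) with or without compound. Conditioned-media VEGF protein was measured by ELISA against a standard curve. EC50 and CC50 come from percentage-inhibition curves over, e.g., seven concentrations, with maximal inhibition set at 100%.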

Take `Cc1ccc(C2c3[nH]c4ccc(Br)cc4c3CCN2C(=O)Oc2ccc(F)cc2)cc1` (stereo not shown) [Compound 403]: the EC50 is under 8 nM.

Under “Homo sapiens”, `CCOC(=O)N1CCc2c([nH]c3ccc(Cl)cc23)C1c1ccc(OCCOCCOC)cc1` (stereo not shown) [Compound 404] gave a concentration giving a half-maximal response (EC50) of under 8 nM. In turn, `O=C(Oc1ccc(Cl)cc1)N1CCc2c([nH]c3ccc(Br)cc23)C1c1ccc(C(F)(F)F)cc1` (stereo not shown) [Compound 405] came in with an EC50 (Homo sapiens) of under 8 nM. Consider `C=CCOc1ccc(C2c3[nH]c4ccc(Cl)cc4c3CCN2C(=O)OCCC)cc1` (stereo not shown) [Compound 406], for which the EC50 (Homo sapiens) is under 8 nM. As to `COCCOc1ccc(C2c3[nH]c4ccc(Cl)cc4c3CCN2C(=O)OCC(C)C)cc1` (stereo not shown) [Compound 407], the EC50 (Homo sapiens) was under 8 nM. As for `C=CCOc1ccc(C2c3[nH]c4ccc(Cl)cc4c3CCN2C(=O)OC(C)C)cc1` (stereo not shown) [Compound 408], the concentration for a half-maximal effect (EC50) (Homo sapiens) was under 8 nM. `C=CCOc1ccc(C2c3[nH]c4ccc(Cl)cc4c3CCN2C(=O)Oc2ccc(F)cc2)cc1` (stereo not shown) [Compound 409]: where the note is “Homo sapiens”, the EC50 was under 8 nM. Molecule `COc1ccc(C2c3[nH]c4ccc(Cl)cc4c3CCN2C(=O)Oc2ccc(F)cc2)cc1` (stereo not shown) [Compound 410] returned an EC50 of under 8 nM. On to `COCCOc1ccc(C2c3[nH]c4ccc(Cl)cc4c3CCN2C(=O)OC(C)C)cc1` (stereo not shown) [Compound 411], for which the EC50 (Homo sapiens) is under 8 nM. In turn, `C=CCOc1ccc(C2c3[nH]c4ccc(Cl)cc4c3CCN2C(=O)OCc2ccccc2)cc1` (stereo not shown) [Compound 412] came in with an EC50 (Homo sapiens) of under 8 nM.

Turning to `C=CCOc1ccc(C2c3[nH]c4ccc(Cl)cc4c3CCN2C(=O)Oc2ccccc2)cc1` (stereo not shown) [Compound 413], where the note is “Homo sapiens”, the EC50 was under 8 nM. In turn, `C=CCOc1ccc(C2c3[nH]c4ccc(Cl)cc4c3CCN2C(=O)OCC(C)C)cc1` (stereo not shown) [Compound 414] displayed an EC50 (Homo sapiens) of under 8 nM. As for `CC(=O)N1CCN(CC(O)COc2ccc(C3c4[nH]c5ccc(Cl)cc5c4CCN3C(=O)Oc3ccc(Cl)cc3)cc2)CC1` (stereo not shown) [Compound 415], under “Homo sapiens”, the half-maximal effective concentration (EC50) is under 8 nM. The molecule `Clc1ccc2[nH]c3c(c2c1)CCNC3CCc1ccccc1` (stereo not shown) [Compound 416] came in with an EC50 (Homo sapiens) of under 8 nM. For `O=C(Oc1ccc(Cl)cc1)N1CCc2c([nH]c3ccc(Cl)cc23)C1c1ccc(OCCCn2ccnn2)cc1` (stereo not shown) [Compound 417], the EC50 (Homo sapiens) is under 8 nM. In turn, `COCCOc1ccc(C2c3[nH]c4ccc(Cl)cc4c3CCN2C(=O)Oc2ccc(Cl)cc2)cc1` (stereo not shown) [Compound 418] returned an EC50 (Homo sapiens) of under 8 nM. Where the note is “Homo sapiens”, `COCCOc1ccc(C2c3[nH]c4ccc(Cl)cc4c3CCN2C(=O)OCc2ccccc2)cc1` (stereo not shown) [Compound 419] showed an EC50 of under 8 nM. Still for that read-out and setting: to `CCOC(=O)N1CCc2c([nH]c3ccc(Br)cc23)C1c1ccc(CNCCOC)cc1` (stereo not shown) [Compound 420] belongs under 8 nM; to `O=C1OCC(COc2ccc(C3c4[nH]c5ccc(Cl)cc5c4CCN3C(=O)Oc3ccc(Cl)cc3)cc2)O1` (stereo not shown) [Compound 421], under 8 nM; to `COCCOc1ccc(C2c3[nH]c4ccc(Cl)cc4c3CCN2C(=O)OCCF)cc1` (stereo not shown) [Compound 423], under 8 nM. On to `CC(C)(C)OC(=O)N1CCCC1C(=O)Oc1ccc(C2c3[nH]c4ccc(Cl)cc4c3CCN2C(=O)OC(C)(C)C)cc1` (stereo not shown) [Compound 424], for which, where the note is “Homo sapiens”, the EC50 is under 8 nM.

With `CCOC(=O)N1CCc2c([nH]c3ccc(Br)cc23)C1c1ccc(C(=O)N2CCN(CC)CC2)cc1` (stereo not shown) [Compound 425], where the note is “Homo sapiens”, the EC50 is under 8 nM.

The molecule `O=C(Oc1ccc(F)cc1)N1CCc2c([nH]c3ccc(Br)cc23)C1c1ccc(C(F)(F)F)cc1` (stereo not shown) [Compound 426] registered an EC50 of under 8 nM. As for `O=C(Oc1ccc(Cl)cc1)N1CCc2c([nH]c3ccc(Cl)cc23)C1c1ccc(OCCCN2CCCC2)cc1` (stereo not shown) [Compound 429], the half-maximal effective concentration (EC50) (Homo sapiens) is under 8 nM. As for `CCOC(=O)N1CCc2c([nH]c3ccc(Br)cc23)C1c1ccc(CO)cc1` (stereo not shown) [Compound 430], the EC50 (Homo sapiens) is under 8 nM.

`COc1ccc(OC(=O)N2CCc3c([nH]c4ccc(Br)cc34)C2c2cnc(N(C)C)nc2)cc1` (stereo not shown) [Compound 431] came in with an EC50 (Homo sapiens) of under 8 nM. As to `C=CCOc1ccc(C2c3[nH]c4ccc(Cl)cc4c3CCN2C(=O)Oc2ccc(OC)cc2)cc1` (stereo not shown) [Compound 432], the half-maximal effective concentration (EC50) (Homo sapiens) was under 8 nM. Consider `O=C(Oc1ccc(Cl)cc1)N1CCc2c([nH]c3ccc(Cl)cc23)C1c1ccc(OCCCN2CCCCC2)cc1` (stereo not shown) [Compound 433], for which the EC50 (Homo sapiens) is under 8 nM.

Regarding `CCOC(=O)N1CCc2c([nH]c3ccc(Br)cc23)C1c1ccc(C(F)(F)F)cc1` (stereo not shown) [Compound 434], where the note is “Homo sapiens”, the EC50 is under 8 nM. With `CCOC(=O)N1CCc2c([nH]c3ccc(Br)cc23)C1c1cnc(N(C)C)nc1` (stereo not shown) [Compound 435], the EC50 (Homo sapiens) was under 8 nM. Same read-out and setting: then `COCCOc1ccc(C2c3[nH]c4ccc(Cl)cc4c3CCN2C(=O)Oc2ccccc2)cc1` (stereo not shown) [Compound 436], with under 8 nM. With `CCOC(=O)N1CCc2c([nH]c3ccc(Br)cc23)C1c1ccc(C(=O)NCCOC)cc1` (stereo not shown) [Compound 438], where the note is “Homo sapiens”, the EC50 was under 8 nM. As to `CC/C=C/CCC1c2[nH]c3ccc(Cl)cc3c2CCN1C(=O)OCC` (stereo not shown) [Compound 439], the EC50 (Homo sapiens) was under 8 nM. The same measure, in the same setting: to `O=C(Oc1ccc(Cl)cc1)N1CCc2c([nH]c3ccc(Cl)cc23)C1c1ccc(NC2CCOCC2)cc1` (stereo not shown) [Compound 440] belongs under 8 nM; to `CCOC(=O)N1CCc2c([nH]c3ccc(Cl)cc23)C1c1ccc(C(=O)N2COCC2(C)C)cc1` (stereo not shown) [Compound 441], 8 to 40 nM. `CCOC(=O)N1CCc2c([nH]c3ccc(Cl)cc23)C1CC(C)SC` (stereo not shown) [Compound 442] showed an EC50 (Homo sapiens) of 8 to 40 nM. Molecule `CNc1ncc(C2c3[nH]c4ccc(Br)cc4c3CCN2c2ncccn2)cn1` (stereo not shown) [Compound 443] displayed an EC50 (Homo sapiens) of 8 to 40 nM. Molecule `O=C(Oc1ccc(Cl)cc1)N1CCc2c([nH]c3ccc(Cl)cc23)C1c1ccc(F)cc1` (stereo not shown) [Compound 444] gave an EC50 (Homo sapiens) of 8 to 40 nM. With `COc1ccc(OC(=O)N2CCc3c([nH]c4ccc(Cl)cc34)C2c2cnc(N(C)C)nc2)cc1` (stereo not shown) [Compound 445], the EC50 (Homo sapiens) was 8 to 40 nM. On the same count and under the same terms, then `COc1ccc(C2c3[nH]c4ccc(Cl)cc4c3CCN2C(=O)Cc2ccc(Cl)cc2)cc1` (stereo not shown) [Compound 447], with 8 to 40 nM; and `CCOC(=O)N1CCc2c([nH]c3ccc(Cl)cc23)C1c1ccc(OCCCN2CCCC2)cc1` (stereo not shown) [Compound 449], with 8 to 40 nM. Consider `O=C(Oc1ccc(Cl)cc1)N1CCc2c([nH]c3ccc(Cl)cc23)C1c1ccc(S(=O)(=O)N2CCOCC2)cc1` (stereo not shown) [Compound 450], for which the EC50 fell in the range of 8 to 40 nM. Molecule `CC(C)(C)OC(=O)N[C@@H](Cc1ccccc1)C(=O)Oc1ccc(C2c3[nH]c4ccc(Cl)cc4c3CCN2C(=O)OC(C)(C)C)cc1` (stereo partly shown) [Compound 451] came in with an EC50 (Homo sapiens) of 8 to 40 nM. Under “Homo sapiens”, `O=C(Oc1ccc(F)cc1)N1CCc2c([nH]c3ccc(Cl)cc23)C1c1ccc(F)cc1` (stereo not shown) [Compound 452] returned an EC50 of 8 to 40 nM.

Where the note is “Homo sapiens”, `CCOC(=O)N1CCC(NC(=O)c2ccc(C3c4[nH]c5ccc(Cl)cc5c4CCN3C(=O)OCC)cc2)CC1` (stereo not shown) [Compound 453] had a concentration for a half-maximal effect (EC50) of 8 to 40 nM. The molecule `O=C(CN1CCOCC1)Nc1ccc(C2c3[nH]c4ccc(Cl)cc4c3CCN2C(=O)Oc2ccc(Cl)cc2)cc1` (stereo not shown) [Compound 454] came in with an EC50 (Homo sapiens) of 8 to 40 nM.

Take `COc1ccc(OC(=O)N2CCc3c([nH]c4ccc(Cl)cc34)C2c2ccc(S(=O)(=O)N3CCOCC3)cc2)cc1` (stereo not shown) [Compound 455]: the EC50 (Homo sapiens) was 8 to 40 nM. `CN(C)CCCOc1ccc(C2c3[nH]c4ccc(Cl)cc4c3CCN2C(=O)OCCF)cc1` (stereo not shown) [Compound 456] registered an EC50 (Homo sapiens) of 8 to 40 nM.

For `Nc1ncc(C2c3[nH]c4ccc(Cl)cc4c3CCN2C(=O)Oc2ccc(Cl)cc2)cn1` (stereo not shown) [Compound 457], the half-maximal effective concentration (EC50) (Homo sapiens) lay within 8 to 40 nM. Molecule `CCOC(=O)N1CCc2c([nH]c3ccc(Cl)cc23)C1c1ccc(OCCCN(C)C)cc1` (stereo not shown) [Compound 458] returned an EC50 (Homo sapiens) of 8 to 40 nM. For the setting “Homo sapiens”, `CC(C)OC(=O)N1CCc2c([nH]c3ccc(Cl)cc23)C1c1ccc(OCCCN(C)C)cc1` (stereo not shown) [Compound 459] gave an EC50 of 8 to 40 nM. `O=C(Oc1ccc(Cl)cc1)N1CCc2c([nH]c3ccc(Cl)cc23)C1c1ccc(OCC2CO2)cc1` (stereo not shown) [Compound 460] returned an EC50 (Homo sapiens) of 8 to 40 nM.

With `CCOC(=O)N1CCc2c([nH]c3ccc(Cl)cc23)C1c1ccc(C(=O)NCC2COC(C)(C)O2)cc1` (stereo not shown) [Compound 461], the EC50 (Homo sapiens) fell in the range of 8 to 40 nM. `O=C(Oc1ccc(Cl)cc1)N1CCc2c([nH]c3ccc(Cl)cc23)C1c1ccc(OCC(O)CN2CCCC2)cc1` (stereo not shown) [Compound 462]: the EC50 (Homo sapiens) was in the range of 8 to 40 nM.

Regarding `CC(=O)Oc1ccc(C2c3[nH]c4ccc(Cl)cc4c3CCN2C(=O)Oc2ccc(Cl)cc2)cc1` (stereo not shown) [Compound 463], the EC50 (Homo sapiens) is 8 to 40 nM. `COc1ccc(C2c3[nH]c4ccc(Cl)cc4c3CCN2C(=O)c2ccc(-c3ccccc3)cc2)cc1` (stereo not shown) [Compound 464] came in with an EC50 (Homo sapiens) of 8 to 40 nM. `COCCOc1ccc(C2c3[nH]c4ccc(Cl)cc4c3CCN2C(=O)Oc2ccc(OC)cc2)cc1` (stereo not shown) [Compound 465] showed a half-maximal effective concentration (EC50) (Homo sapiens) of 8 to 40 nM. Turning to `CCOC(=O)N1CCc2c([nH]c3ccc(Br)cc23)C1c1ccc(C(=O)N2CCN(CCO)CC2)cc1` (stereo not shown) [Compound 466], where the note is “Homo sapiens”, the EC50 lay in the range of 8 to 40 nM. `CCOC(=O)Nc1ccc(C2c3[nH]c4ccc(Cl)cc4c3CCN2C(=O)Oc2ccc(Cl)cc2)cc1` (stereo not shown) [Compound 467] displayed a concentration giving a half-maximal response (EC50) (Homo sapiens) of 8 to 40 nM. Regarding `CN(C)CCCOc1ccc(C2c3[nH]c4ccc(Cl)cc4c3CCN2C(=O)Oc2ccc(Br)cc2)cc1` (stereo not shown) [Compound 468], the EC50 is 8 to 40 nM. Under “Homo sapiens”, `CCOC(=O)N1CCc2c([nH]c3ccc(Cl)cc23)C1c1ccc(C(=O)N2CCN(CCOC)CC2)cc1` (stereo not shown) [Compound 469] displayed an EC50 of 8 to 40 nM. Where the note is “Homo sapiens”, `COCCOC(=O)Nc1ccc(C2c3[nH]c4ccc(Cl)cc4c3CCN2C(=O)Oc2ccc(Cl)cc2)cc1` (stereo not shown) [Compound 470] registered an EC50 of 8 to 40 nM. With `CCOC(=O)N1CCc2c([nH]c3ccc(Cl)cc23)C1CC(C)C` (stereo not shown) [Compound 472], the half-maximal effective concentration (EC50) (Homo sapiens) lay in the range of 8 to 40 nM. For `CCOC(=O)N1CCc2c([nH]c3ccc(Cl)cc23)C1c1ccc(C(=O)N2CCN(CC)CC2)cc1` (stereo not shown) [Compound 473], the EC50 (Homo sapiens) was in the range of 40 to 200 nM. In turn, `CCOC(=O)N1CCc2c([nH]c3ccc(Br)cc23)C1c1ccc(CN2CCN(C)CC2)cc1` (stereo not shown) [Compound 474] returned an EC50 (Homo sapiens) of 40 to 200 nM. The same measure, in the same setting: then `CN(C)c1ncc(C2c3[nH]c4ccc(Cl)cc4c3CCN2C(=O)Oc2ccc(Cl)cc2)cn1` (stereo not shown) [Compound 475], with 40 to 200 nM. As for `CCOC(=O)N1CCc2c([nH]c3ccc(Cl)cc23)C1c1cnc(N(C)C)nc1` (stereo not shown) [Compound 476], the EC50 (Homo sapiens) was 40 to 200 nM.
